According to US20250114361A1, “PYRAZOLOPYRIMIDINE COMPOUND AND PHARMACEUTICAL USE THEREOF” (Japan Tobacco Inc., priority 2022, published 2025):

Biological target: NLRP3 inflammasome (Homo sapiens (Human), UniProt Q96P20)
Assay: NLRP3 inflammasome inhibitory activity: inhibition of IL-1β production in THP1-Null cells (PMA, LPS, Nigericin)
Type: cell-based
Settings: for IC50: Nigericin 7.5 μmol/L
Method: The NLRP3 inflammasome inhibitory activity of test compounds were evaluated on the basis of the inhibitory activity of the IL-1β production in THP1-Null cells (Product Number: thp-null, InvivoGen). Cells were maintained for culture in RPMI-1640 media containing 10% (v/v) fetal bovine serum, 25 mmol/L HEPES, 100 U/mL penicillin, 100 μg/mL streptomycin, 100 μg/mL normocin, and 200 μg/mL hygromycin B (set at 37° C., 5% CO2/95% air).
Cells were suspended with media for assay containing 0.5 μmol/L PMA (RPMI-1640 media containing 10% (v/v) fetal bovine serum, 100 U/mL penicillin, and 100 μg/mL streptomycin), and the suspended cells were seeded on Corning (registered trademark) 384-well Flat Clear Bottom Black Polystyrene TC-treated Microplates (25,000 cells/25 μL/well), followed by incubation (set at 37° C., 5% CO2/95% air) overnight. The supernatant of the culture was removed, and thereto was added media for assay (25 μL/well) containing 1 μg/mL Lipopolysaccharides (Product Number: L2654, Sigma-Aldrich (registered trademark)). Then, the culture was further incubated for 3 hours (set at 37° C., 5% CO2/95% air). The supernatant of the culture was removed. Then, a vehicle solution prepared from Opti-MEM (trademark) medium (Product Number: 31985-070, Invitrogen) was added to blank-setting wells and control-setting wells (20 μL/well), followed by incubation for 15 minutes (set at 37° C., 5% CO2/95% air). A solution containing a test compound (20 μL/well) was added to test compound-setting wells. Further, Opti-MEM (trademark) medium containing Nigericin (Product Number: N7143, Sigma-Aldrich (registered trademark)) was added to the control-setting wells and test compound-setting wells (5 μL/well), followed by incubation for 1.5 hours (set at 37° C., 5% CO2/95% air). The final concentration of Nigericin was adjusted to be 7.5 μmol/L. 5 μL/well of Opti-MEM (trademark) medium was added to the blank-setting wells. The supernatant of the culture was cryonically stored (set at −20° C.) until measurement of IL-1β.
The amount of IL-1β in the culture supernatant was quantitated with AlphaLISA (registered trademark) Human IL-1β Detection Kit (Product Number: AL220C, Perkin Elmer). Fluorescence intensity was measured with a microplate reader EnSpier (Model number: 2300-00J, Perkin Elmer) or EnSight (Model number: HH34000000, Perkin Elmer) according to procedure manuals attached thereto. Inhibition rates of the test compound-setting wells were calculated on the basis of 100% for the blank-setting wells and 0% for the control-setting wells. IC50 values (i.e., 50% inhibitory concentrations) of the test compounds were calculated by logistic regression analysis.

Sequence of NLRP3 inflammasome (Q96P20 whole entry): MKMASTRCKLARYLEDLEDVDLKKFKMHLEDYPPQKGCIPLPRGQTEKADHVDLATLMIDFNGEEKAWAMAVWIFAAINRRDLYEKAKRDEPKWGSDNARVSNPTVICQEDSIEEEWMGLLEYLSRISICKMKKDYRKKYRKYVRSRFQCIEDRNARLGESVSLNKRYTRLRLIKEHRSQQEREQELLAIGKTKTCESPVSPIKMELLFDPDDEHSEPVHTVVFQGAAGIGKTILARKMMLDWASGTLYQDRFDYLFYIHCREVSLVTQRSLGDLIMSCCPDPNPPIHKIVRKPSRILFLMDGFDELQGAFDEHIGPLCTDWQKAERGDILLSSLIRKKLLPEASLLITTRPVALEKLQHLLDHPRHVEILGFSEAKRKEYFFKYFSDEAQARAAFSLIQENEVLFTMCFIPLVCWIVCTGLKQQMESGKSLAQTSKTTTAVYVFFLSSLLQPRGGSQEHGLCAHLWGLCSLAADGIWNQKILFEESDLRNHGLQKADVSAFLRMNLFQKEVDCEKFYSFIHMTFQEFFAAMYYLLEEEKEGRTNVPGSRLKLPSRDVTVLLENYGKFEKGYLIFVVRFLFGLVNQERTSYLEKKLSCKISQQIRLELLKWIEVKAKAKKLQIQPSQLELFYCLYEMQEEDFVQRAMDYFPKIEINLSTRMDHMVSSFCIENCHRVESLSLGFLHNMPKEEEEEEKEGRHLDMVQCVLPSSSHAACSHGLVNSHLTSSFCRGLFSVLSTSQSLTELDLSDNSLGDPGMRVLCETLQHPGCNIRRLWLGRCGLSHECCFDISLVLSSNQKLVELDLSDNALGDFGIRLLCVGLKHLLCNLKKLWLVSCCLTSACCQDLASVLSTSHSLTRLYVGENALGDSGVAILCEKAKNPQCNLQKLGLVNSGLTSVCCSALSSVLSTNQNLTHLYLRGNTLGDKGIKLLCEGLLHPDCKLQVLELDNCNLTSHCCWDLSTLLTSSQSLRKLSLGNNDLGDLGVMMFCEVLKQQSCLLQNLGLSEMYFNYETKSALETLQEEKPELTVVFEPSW

IC50	Compound	also measured
0.055 µM	Cc1cc(C2CC2)cc(C)c1-n1cc2c(=O)[nH]c(-c3ccn(C(F)F)n3)nc2n1 [Example 18]	
0.037 µM	Cc1cc(C2CC2)cc(CO)c1-n1cc2c(=O)[nH]c(-c3ccn(C)n3)nc2n1 [Example 49]	
0.068 µM	Cc1cc(Br)cc(C)c1-n1cc2c(=O)[nH]c(-c3cnccn3)nc2n1 [Example 22]	
0.0025 µM	Cc1cc(I)cc(C)c1-n1cc2c(=O)[nH]c(-c3ccn(C)n3)nc2n1 [Example 48]	
0.39 µM	Cc1nnc(-c2nc3nn(-c4c(C)cc(Br)cc4C)cc3c(=O)[nH]2)o1 [Example 14]	
0.015 µM	Cc1cc(-c2nc3nn(-c4c(C)cc(Br)cc4C)cc3c(=O)[nH]2)no1 [Example 25]	
0.049 µM	Cc1cc(OC(F)F)cc(C)c1-n1cc2c(=O)[nH]c(-c3ccn(C)n3)nc2n1 [Example 9]	
0.006 µM	Cc1csc(-c2nc3nn(-c4c(C)cc(C5CC5)cc4C)cc3c(=O)[nH]2)n1 [Example 50]	
0.018 µM	Cc1cc(Br)cc(C)c1-n1cc2c(=O)[nH]c(-c3cnn(C)c3)nc2n1 [Example 11]	
0.024 µM	Cc1cc(C2CC2)cc(C)c1-n1cc2c(=O)[nH]c(-c3cc4n(n3)CCCO4)nc2n1 [Example 55]	
0.0031 µM	Cc1cc(C2(F)CC2)cc(C)c1-n1cc2c(=O)[nH]c(-c3ccn(C)n3)nc2n1 [Example 46]	
0.003 µM	Cc1cc(C(C)(F)F)cc(C)c1-n1cc2c(=O)[nH]c(-c3cscn3)nc2n1 [Example 58]	
0.062 µM	Cc1cc(OC(F)F)cc(C)c1-n1cc2c(=O)[nH]c(-c3cccnn3)nc2n1 [Example 27]	
0.015 µM	Cc1cc(C2CC2)cc(C)c1-n1cc2c(=O)[nH]c(-c3ccn(C)n3)nc2n1 [Example 4, 2-(4-cyclopropyl-2,6-dimethylphenyl)-6-(1-methyl-1H-pyrazol-3-yl)-2,5-dihydro-4H-pyrazolo[3,4-d]pyrimidin-4-one]	
0.027 µM	COc1nccc(-c2nc3nn(-c4c(C)cc(Br)cc4C)cc3c(=O)[nH]2)n1 [Example 34]	
0.04 µM	Cc1cc(C(C)(F)F)cc(C)c1-n1cc2c(=O)[nH]c(-c3cn(C)cn3)nc2n1 [Example 41, 2-{4-(1,1-difluoroethyl)-2,6-dimethylphenyl}-6-(1-methyl-1H-imidazol-4-yl)-2,5-dihydro-4H-pyrazolo[3,4-d]pyrimidin-4-one]	
0.24 µM	Cc1cc(C2CC2)cc(C)c1-n1cc2c(=O)[nH]c(-c3cnn4c3OCCC4)nc2n1 [Example 53]	
0.94 µM	Cc1cc(Br)cc(C)c1-n1cc2c(=O)[nH]c(-c3cc(C(F)(F)F)ncn3)nc2n1 [Example 31]	
0.88 µM	Cc1cccc(C)c1-n1cc2c(=O)[nH]c(-c3ccn(C)n3)nc2n1 [Example 44]	
0.034 µM	Cn1ccc(-c2nc3nn(-c4cc5c(cc4Cl)CCC5)cc3c(=O)[nH]2)n1 [Example 59, 2-(6-chloro-2,3-dihydro-1H-inden-5-yl)-6-(1-methyl-1H-pyrazol-3-yl)-2,5-dihydro-4H-pyrazolo[3,4-d]pyrimidin-4-one]	

IC50	Compound	also measured
0.022 µM	Cc1cc(Br)cc(C)c1-n1cc2c(=O)[nH]c(-c3cccnn3)nc2n1 [Example 23]	
0.053 µM	Cc1ncc(-c2nc3nn(-c4c(C)cc(Br)cc4C)cc3c(=O)[nH]2)o1 [Example 24]	
0.0067 µM	Cc1cc(C2CC2)cc(C)c1-n1cc2c(=O)[nH]c(-c3cnn(C)c3)nc2n1 [Example 47]	
0.024 µM	Cc1cc(Br)cc(C)c1-n1cc2c(=O)[nH]c(-c3ccncc3F)nc2n1 [Example 35]	
0.023 µM	Cc1cc(C2CC2)cc(C)c1-n1cc2c(=O)[nH]c(-c3cn(C)cn3)nc2n1 [Example 39, 2-(4-cyclopropyl-2,6-dimethylphenyl)-6-(1-methyl-1H-imidazol-4-yl)-2,5-dihydro-4H-pyrazolo[3,4-d]pyrimidin-4-one]	
0.033 µM	Cc1cc(C(C)(F)F)cc(C)c1-n1cc2c(=O)[nH]c(-c3ccn(C)n3)nc2n1 [Example 8, 2-{4-(1,1-difluoroethyl)-2,6-dimethylphenyl}-6-(1-methyl-1H-pyrazol-3-yl)-2,5-dihydro-4H-pyrazolo[3,4-d]pyrimidin-4-one]	
0.016 µM	Cc1cc(C2CC2)cc(C)c1-n1cc2c(=O)[nH]c(-c3ccncc3F)nc2n1 [Example 36]	
	Cc1cc(C2(F)CC2(Cl)Cl)cc(C)c1-n1cc2c(=O)[nH]c(-c3ccn(C)n3)nc2n1 (racemic) [Example 45]	inhibition at 2.4 µM (at 2.4 μM): 34%
0.014 µM	Cc1cc(C(C)(F)F)cc(C)c1-n1cc2c(=O)[nH]c(-c3ccncn3)nc2n1 [Example 42]	
0.036 µM	Cc1cc(Br)cc(C)c1-n1cc2c(=O)[nH]c(-c3nn(C)cc3F)nc2n1 [Example 37]	
0.011 µM	Cc1cc(C2CC2)cc(C)c1-n1cc2c(=O)[nH]c(-c3ccnnc3)nc2n1 [Example 28]	
0.015 µM	Cc1cc(Br)cc(C)c1-n1cc2c(=O)[nH]c(-c3ccnnc3)nc2n1 [Example 15]	
0.012 µM	Cc1cc(C2CC2)cc(C)c1-n1cc2c(=O)[nH]c(-c3cn(C)nn3)nc2n1 [Example 26]	
0.22 µM	COCCn1nccc1-c1nc2nn(-c3c(C)cc(Br)cc3C)cc2c(=O)[nH]1 [Example 17]	
0.04 µM	CCn1ccc(-c2nc3nn(-c4c(C)cc(Br)cc4C)cc3c(=O)[nH]2)n1 [Example 30]	
0.029 µM	Cc1cc(C2CC2)cc(C)c1-n1cc2c(=O)[nH]c(-c3cc[nH]n3)nc2n1 [Example 13]	
0.0063 µM	COCc1cc(C2CC2)cc(C)c1-n1cc2c(=O)[nH]c(-c3ccn(C)n3)nc2n1 [Example 40]	
0.022 µM	Cc1cc(C(F)(F)F)cc(C)c1-n1cc2c(=O)[nH]c(-c3ccncc3F)nc2n1 [Example 33]	
0.0043 µM	Cc1cc(C2CC2)cc(C)c1-n1cc2c(=O)[nH]c(-c3ccncn3)nc2n1 [Example 43]	
0.015 µM	Cc1cc(C2CC2)cc(C)c1-n1cc2c(=O)[nH]c(-c3nn(C)cc3F)nc2n1 [Example 38]	

IC50	Compound	also measured
0.064 µM	COc1cc(C)c(-n2cc3c(=O)[nH]c(-c4ccn(C)n4)nc3n2)c(C)c1 [Example 2]	
0.0078 µM	Cc1cc(Br)cc(C)c1-n1cc2c(=O)[nH]c(-c3ccncn3)nc2n1 [Example 12, 2-(4-bromo-2,6-dimethylphenyl)-6-(pyrimidine-4-yl)-2,5-dihydro-4H-pyrazolo[3,4-d]pyrimidin-4-one]	
	Cc1cc(C2(O)CC2)cc(C)c1-n1cc2c(=O)[nH]c(-c3ccn(C)n3)nc2n1 [Example 51]	inhibition at 0.3 µM (at 0.3 μM): 35%
0.077 µM	Cc1cc(Br)cc(C)c1-n1cc2c(=O)[nH]c(-c3ccnc(C(F)(F)F)n3)nc2n1 [Example 32]	
0.002 µM	Cc1cc(C2CC2)cc(C)c1-n1cc2c(=O)[nH]c(-c3cscn3)nc2n1 [Example 52]	
0.062 µM	Cc1cc(C2CC2)cc(C)c1-n1cc2c(=O)[nH]c(-c3ccn(C4COC4)n3)nc2n1 [Example 19]	
0.009 µM	Cc1cc(C2CC2)cc(C)c1-n1cc2c(=O)[nH]c(-c3cc4n(n3)CCC4)nc2n1 [Example 57]	
0.047 µM	COCCn1ccc(-c2nc3nn(-c4c(C)cc(Br)cc4C)cc3c(=O)[nH]2)n1 [Example 16]	
0.009 µM	Cc1cc(C2CC2)cc(C)c1-n1cc2c(=O)[nH]c(-c3cc4n(n3)CCOC4)nc2n1 [Example 54]	
0.02 µM	Cc1cc(Br)cc(C)c1-n1cc2c(=O)[nH]c(-c3ccn(C)n3)nc2n1 [Example 10]	
0.023 µM	COCCn1ccc(-c2nc3nn(-c4c(C)cc(C5CC5)cc4C)cc3c(=O)[nH]2)n1 [Example 20]	
0.069 µM	Cc1cc(C(F)(F)F)cc(C)c1-n1cc2c(=O)[nH]c(-c3ccn(C)n3)nc2n1 [Example 29]	
0.084 µM	Cn1ccc(-c2nc3nn(-c4cc5c(cc4Cl)OCCC5)cc3c(=O)[nH]2)n1 [Example 56]	
0.05 µM	Cc1cn(C)nc1-c1nc2nn(-c3c(C)cc(C4CC4)cc3C)cc2c(=O)[nH]1 [Example 6]	
0.11 µM	COc1cc(C)c(-n2cc3c(=O)[nH]c(-c4cnn(C)c4)nc3n2)c(C)c1 [Example 3]	
0.013 µM	Cc1cc(Br)cc(C)c1-n1cc2c(=O)[nH]c(-c3cn(C)nn3)nc2n1 [Example 21]	
3.8 µM	Cc1ccccc1-n1cc2c(=O)[nH]c(-c3ccn(C)n3)nc2n1 [Example 1]	
0.39 µM	Cc1cc(C(C)(F)F)cc(C)c1-n1cc2c(=O)[nH]c(-c3nc[nH]n3)nc2n1 [Example 60]	

Compound	IC50	also measured
Cc1cc(C2CC2)cc(C)c1-n1cc2c(=O)[nH]c(-c3ccnn3C)nc2n1 [Example 5]	0.023 µM	
